# Where two headings read alike, the source gives them in different places.
# Assays:
# human TASK-1 = molecular target: T1, human TASK-1 (Homo sapiens, UniProt O14649); experiment: Whole-cell patch clamp on tsA201 cells expressing cloned human TASK-1; assay type: cell-based; conditions: for inhibition of human TASK-1 current: acute application
# T1 construct: expressed in transfected cells; host or cells: tsA201 (modified HEK293), transient transfection, pcDNA3.1+
# Protocol: (§1) Murine (mur) wild‐type (WT) TASK‐1 (KCNK3, Genbank^TM DQ185133) and WT murTASK‐3 (KCNK9, Genbank^TM AH009585.2) cDNA were cloned into pCS2^+ vector and were a kind gift from William Wisden (Imperial College, UK). Human WT TASK‐1 (Genbank^TM AF006823.1), WT TASK‐3 (Genbank^TM AF212829) and WT TASK‐2 (KCNK5, Genbank^TM AF084830.1) cDNA’s, were cloned into pcDNA3.1^+ vector (Invitrogen) and were a kind gift from Helen Meadows (GlaxoSmithKline).
# (§2) All experiments were performed using a modified human embryonic kidney 293 cell line, tsA201 (ECACC; Sigma‐Aldrich), prepared and maintained as previously described.54
# (§3) For the electrophysiological experiments, cells were transiently transfected using a modified calcium phosphate protocol, following a process as previously described.54 Vectors cloned with the gene of interest and a similar vector encoding the cDNA for GFP were added to each well at a concentration of 0.5 µg per well, with the exception being for murTASK‐3, where 0.125 µg per well was used.
# (§4) Currents were recorded from tsA201 cells transiently transfected with the channel of interest using whole‐cell patch clamp in a voltage clamp configuration and a step‐ramp voltage protocol as previously described.54 Briefly, all experiments were conducted at room temperature (20‐24°C) using an external solution composed of 145 mM of NaCl, 2.5 mM of KCL, 3 mM of MgCl2, 1 mM of CaCl2 and 10 mM of HEPES (pH 7.4, using NaOH) and an intracellular pipette solution composed of 150 mM of KCL, 3 mM of MgCl2, 5 mM of EGTA and 10 mM of HEPES (pH adjusted to 7.4 with KOH). External solution and modulatory compounds were superfused at a rate of 4‐5 mL min^−1. Currents were recorded using an Axopatch 1D patch clamp amplifier (Molecular Devices), filtered at 0.3 kHz, digitized at 1 kHz.
# (§5) For analysis of outward current, we measured the current difference between the −80 and −40 mV. The current‐voltage graphs were obtained from the ramp change in voltage between −120 and +20 mV. For each cell, the current amplitude (pA) was normalized to the cell capacitance (pF). The currents obtained were analysed using pCLAMP 10.2 software (Molecular Devices), Microsoft Excel and GraphPad Prism 6 or 7 software. Data were expressed as the mean ± 95% Confidence Intervals (CI), and n represents the number of individual cells. For EC50 calculations, concentration‐response curves were fitted using the Hill equation. Statistical analysis used were one‐way ANOVA with a post‐hoc Dunnett's test or an unpaired/paired Student's t test. Data were considered statistically different if P < .05. The data and statistical analysis comply with the recommendations on experimental design and analysis in pharmacology.55
# human TASK-3 = molecular target: T2, human TASK-3 (Homo sapiens, UniProt Q9NPC2); experiment: Whole-cell patch clamp on tsA201 cells expressing cloned human TASK-3; assay type: cell-based; conditions: for inhibition of human TASK-3 current: acute application
# T2 construct: expressed in transfected cells; host or cells: tsA201 (modified HEK293), transient transfection, pcDNA3.1+
# Protocol: as §1, §2, §3, §4, §5
# [1] = opioid challenged rats, intravenous; cited from earlier work
# [2] = opioid challenged cynomolgus monkeys, intravenous; cited from earlier work
# T1 sequence (O14649 whole entry): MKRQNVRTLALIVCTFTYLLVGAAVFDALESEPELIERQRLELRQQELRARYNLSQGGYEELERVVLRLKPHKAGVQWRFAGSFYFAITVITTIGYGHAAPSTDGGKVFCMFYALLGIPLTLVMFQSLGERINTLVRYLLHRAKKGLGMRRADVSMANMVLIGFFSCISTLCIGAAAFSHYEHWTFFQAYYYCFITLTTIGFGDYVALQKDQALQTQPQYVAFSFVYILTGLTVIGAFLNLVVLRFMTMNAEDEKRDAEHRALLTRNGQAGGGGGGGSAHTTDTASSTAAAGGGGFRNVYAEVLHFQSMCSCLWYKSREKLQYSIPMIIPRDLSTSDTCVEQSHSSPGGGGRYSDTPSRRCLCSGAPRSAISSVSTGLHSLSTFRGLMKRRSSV
# T2 sequence (Q9NPC2 whole entry): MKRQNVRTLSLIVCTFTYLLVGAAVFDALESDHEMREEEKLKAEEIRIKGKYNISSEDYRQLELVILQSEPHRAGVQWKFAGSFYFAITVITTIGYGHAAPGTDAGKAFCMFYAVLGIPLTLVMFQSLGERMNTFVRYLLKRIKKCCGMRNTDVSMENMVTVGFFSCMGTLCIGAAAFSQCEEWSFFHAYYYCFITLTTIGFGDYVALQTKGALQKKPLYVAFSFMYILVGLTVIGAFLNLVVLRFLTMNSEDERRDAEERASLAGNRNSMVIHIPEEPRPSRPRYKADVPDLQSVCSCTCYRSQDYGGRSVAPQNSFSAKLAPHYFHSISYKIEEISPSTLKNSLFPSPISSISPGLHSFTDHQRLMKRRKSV
compound,measurement,setting,value
CCN1CC(CCN2CCOCC2)C(c2ccccc2)(c2ccccc2)C1=O (stereo not shown) [GAL‐053],inhibition of human TASK-1 current,human TASK-1; 10 µM,3%
same,inhibition of human TASK-1 current,human TASK-1; 100 µM,24%
same,inhibition of human TASK-1 current,human TASK-1; 300 µM,47%
same,EC50,"human TASK-1; tsA201 cells, whole-cell patch clamp, room temperature, read-out: EC50, inhibition of human TASK-1 current",~336 µM
same,inhibition of human TASK-3 current,"human TASK-3; 10 µM, WT",8%
same,inhibition of human TASK-3 current,"human TASK-3; 100 µM, WT",35%
same,inhibition of human TASK-3 current,human TASK-3; 300 µM,50%
same,EC50,"human TASK-3; tsA201 cells, whole-cell patch clamp, room temperature, read-out: EC50, inhibition of human TASK-3 current",~286 µM
same,effect on minute volume,[1],had no effect
same,effect on minute volume,[2],had no effect

# — article PMC7003846, “Effects of the ventilatory stimulant, doxapram on human TASK‐3 (KCNK9, K2P9.1) channels and TASK‐1 (KCNK3, K2P3.1) channels” (Acta Physiologica (Oxford, England), 2019)
